Literature values as cited in patent US20240180903A1, “INJECTABLE PHARMACEUTICAL COMPOSITION, PREPARATION METHOD THEREFOR AND USE THEREOF” (ZHEJIANG CUIZE PHARMACEUTICAL TECHNOLOGY CO., LTD., priority 2022, published 2024).

Legend:
HIV RNA in plasma = conditions: oral 5 mg/d or 30 mg/d, 10 d after a single dose
HIV = conditions: read-out: IC50 against HIV

IC50 (HIV): 0.22 nM
SMILES: C[C@H]1CO[C@@H]2Cn3cc(C(=O)NCc4ccc(F)cc4F)c(=O)c(O)c3C(=O)N12 [Cabotegravir]
HIV RNA in plasma (HIV RNA in plasma): 2.2-2.3 copies/mL
